This note sets out measurements from patent publication US12599592B2, “Therapeutic small molecules for treatment of pulmonary hypertension” (UNIVERSITY OF PITTSBURGH—OF THE COMMONWEALTH SYSTEM OF …, priority 2020, dated 2026).

For series [1], the system named is hypoxic IL-6 Tg mice. Nature of the series: Hypoxic IL-6 transgenic pulmonary arterial hypertension mouse model. The class given is in vivo, IL-6 transgenic C57BL/6 mice. How it is done: Following euthanasia, right ventricle/[left ventricle+septum]
Pulmonary-specific IL-6 transgenic mice (C57BL/6 background) were described previously (Steiner M K et al. Circ Res. 2009, 104, 236-244, 228p following 244). These mice were bred in house, and 12 week old male transgenic mice vs. control littermates were compared. Mice were injected i.p. every 3 days with vehicle control (2.5% DMSO) vs. BRD2889 (5 mg/kg vs. 10 mg/kg), followed by exposure to normobaric hypoxia (10% O2; OxyCycler chamber, Biospherix Ltd, Redfield, NY) for 14 days, as described (Steiner M K et al. Circ Res. 2009, 104, 236-244, 228p following 244).
Rodent echocardiography: Echocardiography was performed using a 15-45 MHz transthoracic transducer and a Visual Sonics Vevo 3100 system (Fujifilm). Inhaled isoflurane anesthesia was used at 2% in 100% O2 during positioning and hair removal and then decreased to isoflurane 0.8% during imaging.

Series [2] deals with mitochondrial Complex I. The series is described as follows: Mitochondrial Complex I activity in PAECs. The format is cell-based, human.
In series [3] the test system is PASMCs. The series is described as follows: Apoptosis (caspase 3/7) in PASMCs. The format is cell-based, human. The following applies: IL-6/sIL-6R + hypoxia. How it is done: In IL-6/sIL-6R+hypoxia experiments, a human recombinant IL-6/IL-6R alpha protein chimera (25 ng/ml, Millipore) was administered at 70-80% confluency for 48 h in complete media along with vehicle control (DMSO, Sigma-41639). BRD2889 (1 uM) vs. vehicle control were added, as indicated, and placed into a hypoxia chamber for 24 h. The hypoxia chamber (modular incubator chamber) was obtained from Billups-Rothenberg Inc. (Del Mar, Calif) and placed in regulated CO2 incubator at 37° C.
Cellular apoptosis: Caspase-3/7 activity was quantified using the Caspase-Glo 3/7 Assay (Promega), according to manufacturer's instructions. Caspase-3/7 activity was normalized to total protein content determined by BCA method (Thermo Fisher Scientific).

Where [4] appears, read: BRD2889 10 mg/kg vs vehicle, 10 days of treatment.
Where [5] appears, read: BRD2889 5 and 10 mg/kg IP every three days.

As to `COc1ccc(C#CC2CCCN(C(=O)/C=C/c3cc(OC)c(OC)c(OC)c3)C2=O)cc1` (stereo not drawn) [BRD2889], the “lung total GST enzyme activity” value in series [1] (BRD2889 5 mg/kg (low) and 10 mg/kg (high) IP every three days, 14 days hypoxia) is given as “dose-dependent reduction”. Also, in series [1] (setting [4]), the heart rate entry is given as “No differences” and the “left ventricular function (fractional shortening, ejection fraction, PW thickness)” value was “No differences”. Also, in series [1] (setting [5]), the Fulton index entry is “dose-dependent reduction”; the “ISCU in arterioles, particularly CD31+ endothelium (in situ staining)” value was “rescued”; the RVSP entry was “dose-dependent reduction”; the arteriolar muscularization result is recorded as “reduced”. Moreover, in series [1] (setting [5]), the “cleaved caspase-3 (CC-3) in whole vessels” value is “decreased”. For the same compound, in series [2] (PAECs, IL-6/sIL-6R + hypoxia), the “mitochondrial Complex I activity” value is on record as “partially rescued”. Besides, in series [2] (hypoxic PAECs), the “iron-sulfur-dependent mitochondrial Complex I activity” value is on record as “reversed the decrease”. Besides, the “hypoxia-induced decrease in mitochondrial Complex I activity” value in series [2] (hypoxic PAECs with siRNA knockdown of ISCU) is given as “did not reverse”. The apoptosis entry in series [3] is on record as “only subtly changed”.
